We go through eight compounds from patent US5859061A, “Bis-sulfonamides hydroxamic acids as MMP inhibitors” (Pharmacia & Upjohn Company, priority 1998, dated 1999).

Holding throughout (type): biochemical
Common to all, as to details: in vitro, pH 7.5, room temperature, 15 min preincubation, substrate 1-3 hours

For one assay, the target named is collagenase. The assay can be described thus: particle concentration fluorescence assay, inhibition of collagenase. Here is the method: (§1) Inhibitory activity is evaluated in one or more of the MMP enzymes (stromelysin, gelatinase, and collagenase) in vitro using particle concentration fluorescence assay. An inhibitor binds to MMP enzymes which prevents the degradation of a substrate by stromelysin, gelatinase, or collagenase. The substrate has attached to it a fluorescein and a biotin moiety. The intact substrate then binds to an avidin-coated particle via the biotin moiety. Once the particle is washed and dried, a fluorescent signal is generated since the fluorescent group is attached to the particle. Without an inhibitor present, the substrate is degraded by MMP enzymes and the fluorescein group is removed, therefore, no fluorescent signal can be detected. Testing compounds are dissolved in DMSO to the desired concentration, then the solutions are diluted to 1:5 with MMP buffer (50 mM Tris-HCl, pH 7.5; 150 mM NaCl; 0.02% NaN3). Serial two-fold dilutions of each compound are prepared. A concentrated, activated enzyme solution is transferred into each plate of the testing compounds, and the mixture is incubated at room temperature for 15 minutes. Thawed MMP substrate is then added into all plates, and the plates are incubated in the dark for 1-3 hours at room temperature. At this point, the substrate mixture is mixed with 0.1% avidin-coated polystyrene particles. After 15 minutes, the fluorescence values are measured following filtration and washing of the beads. Ki values are then calculated.

In the next assay the target is gelatinase. The assay can be described thus: particle concentration fluorescence assay, inhibition of gelatinase. Here is the method:
as §1

Another assay concerns the target stromelysin (Homo sapiens, UniProt P08254). The assay can be described thus: particle concentration fluorescence assay, inhibition of stromelysin. Here is the method:
as §1

Chain of stromelysin (P08254 100-477): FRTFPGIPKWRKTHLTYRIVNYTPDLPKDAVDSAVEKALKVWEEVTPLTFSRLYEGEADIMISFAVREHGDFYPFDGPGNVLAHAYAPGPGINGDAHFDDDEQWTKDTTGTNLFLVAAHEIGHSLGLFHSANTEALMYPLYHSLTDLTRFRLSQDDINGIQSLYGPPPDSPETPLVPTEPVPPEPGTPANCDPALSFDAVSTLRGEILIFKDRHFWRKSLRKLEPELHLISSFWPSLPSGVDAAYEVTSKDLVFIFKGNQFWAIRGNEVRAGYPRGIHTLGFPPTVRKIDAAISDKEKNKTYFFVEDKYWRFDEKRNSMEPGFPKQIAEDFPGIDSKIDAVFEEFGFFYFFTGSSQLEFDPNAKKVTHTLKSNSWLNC

On to `Cc1ccc(S(=O)(=O)NCCC(NS(=O)(=O)c2ccc(C)cc2)C(=O)NO)cc1` (stereo not drawn) [Example 1, N-Hydroxy-2,4-bis-[[4-methylphenylsulfonyl]amino] butanamide], for which the Ki on collagenase amounted to 48 nM; at gelatinase, 0.94 nM; on stromelysin, 2.4 nM.
For the compound `Cc1ccc(S(=O)(=O)NCC[C@@H](NS(=O)(=O)c2ccc(C)cc2)C(=O)NO)cc1` [Example 2, (R)-N-Hydroxy-2,4-bis-[[4-methylphenylsulfonyl]amino] butanamide], the Ki on collagenase was found to be 43 nM; at gelatinase it was 1.3 nM; at stromelysin it was 3.2 nM.
For the compound `Cc1ccc(S(=O)(=O)NCC[C@H](NS(=O)(=O)c2ccc(C)cc2)C(=O)NO)cc1` [Example 3, (S)-N-Hydroxy-2,4-bis-[[4-methylphenylsulfonyl]amino] butanamide], the Ki was determined as 840 nM at collagenase, 35 nM at gelatinase and 48 nM on stromelysin.
Regarding `Cc1ccc(S(=O)(=O)NCC(NS(=O)(=O)c2ccc(C)cc2)C(=O)NO)cc1` (stereo not drawn) [Example 4, N-Hydroxy-2,3-bis-[[4-methylphenylsulfonyl]amino] propionamide], the Ki at collagenase turned out to be 449 nM; at gelatinase, 20 nM; on stromelysin, 844 nM.
The corresponding values for `O=C(NO)C(CCNS(=O)(=O)c1ccc(F)cc1)NS(=O)(=O)c1ccc(F)cc1` (stereo not drawn) [Example 5, N-Hydroxy-2,4-bis-[[4-fluorophenylsulfonyl]amino] butanamide] are 60 nM, 16 nM and 45 nM.
For the compound `O=C(NO)[C@H](CCNS(=O)(=O)c1ccccc1)NS(=O)(=O)c1ccccc1` [Example 6, (S)-N-Hydroxy-2,4-bis-[[phenylsulfonyl]amino] butanamide], the Ki at collagenase was found to be 3000 nM; at gelatinase, 284 nM; on stromelysin it was 2000 nM.
In the case of `Cc1ccc(S(=O)(=O)NCCCC(NS(=O)(=O)c2ccc(C)cc2)C(=O)NO)cc1` (stereo not drawn) [Example 7, N-Hydroxy-2,5-bis-[[4-methylphenylsulfonyl]amino] valeramide], the Ki was determined as 570 nM at collagenase, 5.1 nM on gelatinase and 107 nM on stromelysin.
Regarding `COc1ccc(S(=O)(=O)NCCC(NS(=O)(=O)c2ccc(OC)cc2)C(=O)NO)cc1` (stereo not drawn) [Example 8, N-Hydroxy-2,4-bis-[[4-methoxyphenylsulfonyl]amino] butanamide], the Ki on collagenase came out at 93 nM; on gelatinase, 0.7 nM; at stromelysin, 1.2 nM.

For orientation: Ki means the equilibrium dissociation constant of an inhibitor or competing ligand from its target. A lower Ki goes with a stronger hold on the target.
